Patent publication US9556110B2, “Aminoalcohol lipidoids and uses thereof” (Massachusetts Institute of Technology, priority 2008, dated 2017)

Tested on: Factor VII
Test: In vivo Factor VII knockdown after injection of anti-Factor VII siRNA lipidoid formulations
Parameters: species or system C57BL/6 mice
Conditions: mice, 0.01 mg/kg siRNA dosing
Method: C57BL/6 mice (Charles River Labs) received either saline or siRNA in lipidoid formulations via tail vein injection at a volume of 0.01 ml/g. […] At 48 hours after administration, animals were anesthetized by isofluorane inhalation and blood was collected into serum separator tubes by retroorbital bleed. Serum levels of Factor VII protein were determined in samples using a chromogenic assay (Biophen FVII, Aniara Corporation) according to the manufacturer's protocols. A standard curve was generated using serum collected from saline-treated animals. Exemplary results are depicted in FIG. 7.
To test siRNA delivery efficacy in vivo, a mouse model for liver delivery was used. […] Once produced by hepatocytes, Factor VII is released into the bloodstream, and a baseline level of expression can be determined by simple blood draw and quantification of protein levels by colorimetric assay. By delivering anti-Factor VII siRNA to hepatocytes, knockdown of this model protein can be achieved and a percentage of silencing can be determined by comparison to an untreated control. […]
Following the initial in vivo screening experiments, two compounds were used to conduct a dose response. […] In addition to Factor VII measurement, the change in mouse body weight is recorded and a loss in weight is generally considered formulation induced toxicity (See FIG. 13b and FIG. 14b). […]

Row | Compound | difference of Factor VII reduction between racemic lipidoid and R or S forms | reduction of systemic Factor VII (preliminary)
1 | CCCCCCCCCCC(O)CN(CCN1CCN(CCN(CC(O)CCCCCCCCCC)CC(O)CCCCCCCCCC)CC1)CCN(CC(O)CCCCCCCCCC)CC(O)CCCCCCCCCC (racemic) [C12-200] | insignificant | –
2 | CCCCCCCCCC[C@H](O)CN(CCN1CCN(CCN(C[C@@H](O)CCCCCCCCCC)C[C@@H](O)CCCCCCCCCC)CC1)CCN(C[C@@H](O)CCCCCCCCCC)C[C@@H](O)CCCCCCCCCC [(S)—C12-200] | – | approximately 50%
